Assay results published in PMC8861431, “Tissue Pharmacokinetic Properties and Bystander Potential of Hypoxia-Activated Prodrug CP-506 by Agent-Based Modelling” (Frontiers in Pharmacology, 2022).
“And” between values parts separate entries of the source, which are not always exact repeats. Equal values may be shown once.

Legend:
[1] = Diffusion across bare collagen-coated support membrane (without cells); assay type: in vitro ADME; details: for D M: diffusion coefficient in medium: Table 1
Procedure: (§1) The extravascular transport properties of CP-506 and its formed metabolites were investigated using a custom-designed diffusion apparatus, as described previously ([Hicks et al., 2006]). Briefly, MCL cultures were established by seeding 1 x 10^6 POR-R cells onto collagen-coated Millicell-CM inserts for 3 days. Established MCLs were placed at the interface of the two media-filled compartments of diffusion chambers. Diffusion chambers were placed in a 37°C water bath and gassed with a supraoxic (95% O2, 5% CO2) or anoxic (5% CO2, bal N2) mixture for at least 1 h prior to drug addition. Flux was initiated by the addition of internal standard ([^14C]-urea) and 20 µM CP-506 to the donor compartment. Samples (100 µl) were collected from both the donor and receiver compartments for up to 5 h thereafter. At each time point, a 25 µl aliquot was mixed with emulsifier-safe water-accepting scintillant and assayed for radioactivity using a Perkin Elmer Tricard 2910 TR liquid scintillation analyser. The remaining sample was treated with two volumes of ice-cold acetonitrile (containing 2 µM of the relevant deuterated internal standards) and stored at −80°C until LC-MS/MS analysis. Similar experiments were performed using collagen-coated inserts without MCLs to deduce the chemical stability and diffusion coefficient of CP-506 across the bare support membrane.
(§2) Drug transport in MCLs was modelled as a one-dimensional diffusion with reaction across four consecutive compartments (stirred donor, POR-R MCL, collagen-coated teflon support membrane and stirred receiver) using a custom designed MatLab routine ([Foehrenbacher et al., 2013a]). Model parameters were derived by fitting Eq. 1 and Eq. 2 to the measured concentration-time profile of internal standard [^14C]-urea, CP-506, CP-506H and CP-506M in MCL flux studies. The flux of CP-506 and its metabolites across POR-R MCLs was described using Fick’s second law with a reaction term: ∂CeN/∂t=DN∂^2CeN/∂x^2−klossNCeN− φ( kinNCeN− koutNCiN) (1) ∂CiN/∂t= kmet0(N−1)Ci(N−1)+φ(kinNCeN− koutNCiN)−kmet0NCiN (2) where C is the concentration of the diffusing substance at position x and time t in the extracellular (e) or intracellular (i) compartment, D is the diffusion coefficient through either a bare support membrane (without cells) (D suo ) or extracellular space of a POR-R MCL (D MCL ), k loss is the rate constant for first-order loss (instability) in culture medium, k in and k out are the rate constants for transmembrane transport and k met0 is the rate constant for intracellular metabolism and instability for each compound (N). For metabolites, N-1 represents the previous compound from which the current compound is produced by metabolism. Experimental data was fitted iteratively to derive a tissue diffusion coefficient (DMCL) and metabolic scaling factor (φ i ) to restrain parameter estimates from the cellular PK model (Kin, Kout, Kmet0). The diffusion coefficient for CP-506 across the bare support membrane (Dsup) was determined by solving Eq. 1 with a reaction term only for chemical instability. MCL thicknesses were estimated by fitting the measured [^14C]-urea concentrations to those predicted by Eq. 1 and Eq. 2 without instability or metabolism by using the known diffusion coefficient (DMCL) for [^14C]-urea in HCT-116 MCLs ([Wilson et al., 2004]). The diffusion coefficient (DMCL) for CP-506 in POR-R MCLs was then fitted from the measured concentrations in the donor and receiver compartments of supraoxic experiments by assuming one-directional diffusion in the extracellular space. The metabolic scaling factor (φ i ) was then fitted from the measured concentrations in the donor and receiver compartment of anoxic experiments by fixing parameter estimates to the diffusion coefficient (DMCL) from supraoxic experiments.

POR-R MCLs = test: Multicellular layer (MCL) flux studies / (pro)drug transport model; assay type: in vitro ADME, human; details: for D s: diffusion coefficient in spheroid: Table 1
Procedure: as §1, §2

[2] = assumed equivalent to CP-506 for the active metabolites

SMILES | D M: diffusion coefficient in medium [1, 2] | D s: diffusion coefficient in spheroid (POR-R MCLs; [2]) | D M: diffusion coefficient in medium ([1]; Dsup fitted for bare support membranes under supraoxic conditions) | Dsup: diffusion coefficient across bare support membranes ([1]; anoxic (5% CO2, bal N2)) | Dsup: diffusion coefficient across bare support membranes ([1]; supraoxic (95% O2, 5% CO2)) | D s: diffusion coefficient in spheroid (POR-R MCLs; DMCL fitted in POR-R MCLs under supraoxic conditions) | DMCL: diffusion coefficient across POR-R MCLs (POR-R MCLs; Table S4, anoxia, fixed to the supraoxic value) | DMCL: diffusion coefficient across POR-R MCLs (POR-R MCLs; Table S4, supraoxia) | DMCL: diffusion coefficient across POR-R MCLs (POR-R MCLs; supraoxic experiments)
CCN1CCN(C(=O)c2cc(N(CCBr)CCOS(C)(=O)=O)c(S(C)(=O)=O)cc2N)CC1 [CP-506M, 2-((4-amino-5-(4-ethylpiperazine-1-carbonyl)-2-(methylsulfonyl)phenyl)(2-bromoethyl)amino)ethyl methanesulfonate] | 1.32 × 10^−6 ± 0.19 × 10^−6 cm^2s^−1 | 1.93 × 10^−7 ± 1.8 × 10^−8 cm^2s^−1 |  |  |  |  |  |  | 
CCN1CCN(C(=O)c2cc(N(CCBr)CCOS(C)(=O)=O)c(S(C)(=O)=O)cc2NO)CC1 [CP-506H, 2-((2-bromoethyl)(5-(4-ethylpiperazine-1-carbonyl)-4-(hydroxyamino)-2-(methylsulfonyl)phenyl)amino)ethyl methanesulfonate] | 1.32 × 10^−6 ± 0.19 × 10^−6 cm^2s^−1 | 1.93 × 10^−7 ± 1.8 × 10^−8 cm^2s^−1 |  |  |  |  |  |  | 
CCN1CCN(C(=O)c2cc(N(CCBr)CCOS(C)(=O)=O)c(S(C)(=O)=O)cc2[N+](=O)[O-])CC1 [CP-506, 2-[(2-bromoethyl)-5-[(4-ethyl-1-piperazinyl)carbonyl]-2-(methylsulfonyl)-4-nitroanilino]ethyl methanesulfonate] |  |  | 1.32 × 10^−6 ± 0.19 × 10^−6 cm^2s^−1 | 0.717 ± 0.01 x 10^−6 cm^2 s^−1 and 0.717 ± 0.01 (3) x 10^−6 cm^2 s^−1 | 1.32 ± 0.19 x 10^−6 cm^2 s^−1 and 1.32 ± 0.19 (2) ^b x 10^−6 cm^2 s^−1 | 1.93 × 10^−7 ± 1.8 × 10^−8 cm^2s^−1 | 1.93 (fixed) x 10^-6 cm^2 s^-1 | 1.93 ± 0.01 (6) x 10^-6 cm^2 s^-1 | 1.93 ± 0.011 x 10^−7 cm^2s^−1
CCN1CCN(C(=O)c2cc(N(CCCl)CCCl)c(S(C)(=O)=O)cc2N)CC1 [CP-506M-Cl2, (2-Amino-5-(bis(2-chloroethyl)amino)-4-(methylsulfonyl)phenyl)(4-ethylpiperazin-1-yl)methanone] | 1.32 × 10^−6 ± 0.19 × 10^−6 cm^2s^−1 | 1.93 × 10^−7 ± 1.8 × 10^−8 cm^2s^−1 |  |  |  |  |  |  | 
